Reference: article PMC5218480 (PLoS ONE, 2017)

Test system: MV-4-11 cells
Test: Gene expression microarray analysis (Affymetrix PrimeView) and GSEA
Format: cell-based, human
Set-up: RFU PODN (11730768_x_at) / Fold change /veh PODN (11730768_x_at) / RFU LINC00158 (11744669_a_at) / Fold change /veh LINC00158 (11744669_a_at) / RFU DUSP10 (11751237_a_at) / Fold change /veh DUSP10 (11751237_a_at) / RFU ID3 (11757404_x_at) / Fold change /veh ID3 (11757404_x_at) / RFU PLEKHG5 (11737974_s_at) / Fold change /veh PLEKHG5 (11737974_s_at) / RFU LRRC4B (11730491_at) / Fold change /veh LRRC4B (11730491_at) / RFU GIMAP4 (11747438_a_at) / Fold change /veh GIMAP4 (11747438_a_at) / RFU KRT8 (11758183_x_at) / Fold change /veh KRT8 (11758183_x_at) / RFU CNN1 (11734310_a_at) / Fold change /veh CNN1 (11734310_a_at) / RFU VPS37D (11726825_at) / Fold change /veh VPS37D (11726825_at) / RFU C10orf10 (11716522_x_at) / Fold change /veh C10orf10 (11716522_x_at) / RFU KIR2DL2 /// KIR2DL4 /// KIR2DL5A /// KIR2DL5B /// KIR2DS1 /// KIR2DS2 /// KIR2DS3 /// KIR2DS4 /// KIR3DL3 /// KIR3DL3 /// KIR3DS1 (11738374_at) / Fold change /veh KIR2DL2 /// KIR2DL4 /// KIR2DL5A /// KIR2DL5B /// KIR2DS1 /// KIR2DS2 /// KIR2DS3 /// KIR2DS4 /// KIR3DL3 /// KIR3DL3 /// KIR3DS1 (11738374_at) / RFU C1QL1 (11718748_at) / Fold change /veh C1QL1 (11718748_at) / RFU TMPRSS4 (11747572_a_at) / Fold change /veh TMPRSS4 (11747572_a_at) / RFU HAMP (11756126_x_at) / Fold change /veh HAMP (11756126_x_at) / RFU RNFT2 (11725882_a_at) / Fold change /veh RNFT2 (11725882_a_at) / RFU NR4A2 (11747474_a_at) / Fold change /veh NR4A2 (11747474_a_at) / RFU ABCC12 (11746883_a_at) / Fold change /veh ABCC12 (11746883_a_at) / RFU TMEM136 (11760407_x_at) / Fold change /veh TMEM136 (11760407_x_at) / RFU CLDN22 /// WWC2 (11732394_at) / Fold change /veh CLDN22 /// WWC2 (11732394_at) / RFU HLA-DPB1 (11760878_x_at) / Fold change /veh HLA-DPB1 (11760878_x_at) / RFU SPINT1 (11716480_a_at) / Fold change /veh SPINT1 (11716480_a_at) / RFU GAP43 (11754022_s_at) / Fold change /veh GAP43 (11754022_s_at) / RFU A4GNT (11735810_at) / Fold change /veh A4GNT (11735810_at) / RFU PRB3 (11715151_x_at) / Fold change /veh PRB3 (11715151_x_at) / RFU TUBB4B (11761932_at) / Fold change /veh TUBB4B (11761932_at) / RFU CAPN14 (11732068_a_at) / Fold change /veh CAPN14 (11732068_a_at) / RFU TMCC2 (11721928_a_at) / Fold change /veh TMCC2 (11721928_a_at) / RFU IRGQ (11745062_a_at) / Fold change /veh IRGQ (11745062_a_at) / RFU FAM174B (11720279_a_at) / Fold change /veh FAM174B (11720279_a_at) / RFU TMPRSS4 (11748680_a_at) / Fold change /veh TMPRSS4 (11748680_a_at) / RFU FAM212B (11763350_a_at) / Fold change /veh FAM212B (11763350_a_at) / RFU PLEKHG5 (11743358_a_at) / Fold change /veh PLEKHG5 (11743358_a_at) / RFU ZSCAN30 (11745921_a_at) / Fold change /veh ZSCAN30 (11745921_a_at) / RFU CMKLR1 (11741424_a_at) / Fold change /veh CMKLR1 (11741424_a_at) / RFU LOC101060620 /// MAPK8IP1 (11723275_at) / Fold change /veh LOC101060620 /// MAPK8IP1 (11723275_at) / RFU SPTSSB (11747773_x_at) / Fold change /veh SPTSSB (11747773_x_at) / RFU PRSS12 (11739890_at) / Fold change /veh PRSS12 (11739890_at) / RFU BIN1 (11741810_x_at) / Fold change /veh BIN1 (11741810_x_at) / RFU WNT11 (11732464_a_at) / Fold change /veh WNT11 (11732464_a_at) / RFU C10orf10 (11716521_a_at) / Fold change /veh C10orf10 (11716521_a_at) / RFU C5orf56 (11738089_at) / Fold change /veh C5orf56 (11738089_at) / RFU CYB561 (11721691_x_at) / Fold change /veh CYB561 (11721691_x_at) / RFU ANKRD19P (11752326_a_at) / Fold change /veh ANKRD19P (11752326_a_at) / RFU OR2T12 /// OR2T33 /// OR2T8 (11738714_s_at) / Fold change /veh OR2T12 /// OR2T33 /// OR2T8 (11738714_s_at) / RFU VCAN (11748164_a_at) / Fold change /veh VCAN (11748164_a_at) / RFU JSRP1 (11732532_at) / Fold change /veh JSRP1 (11732532_at) / RFU KRTAP10-11 (11738290_x_at) / Fold change /veh KRTAP10-11 (11738290_x_at) / RFU MYO3A (11730013_a_at) / Fold change /veh MYO3A (11730013_a_at) / RFU EBF3 (11725865_a_at) / Fold change /veh EBF3 (11725865_a_at) / RFU CAMK2N1 (11719241_x_at) / Fold change /veh CAMK2N1 (11719241_x_at) / RFU C5orf56 (11738088_a_at) / Fold change /veh C5orf56 (11738088_a_at) / RFU OLFML3 (11715873_a_at) / Fold change /veh OLFML3 (11715873_a_at) / RFU LOC100653217 /// NTM (11731650_a_at) / Fold change /veh LOC100653217 /// NTM (11731650_a_at) / RFU MAPK11 (11762145_a_at) / Fold change /veh MAPK11 (11762145_a_at) / RFU FIZ1 (11724087_x_at) / Fold change /veh FIZ1 (11724087_x_at) / RFU OASL (11726364_x_at) / Fold change /veh OASL (11726364_x_at) / RFU SOX15 (11748057_x_at) / Fold change /veh SOX15 (11748057_x_at) / RFU CD79A (11719716_a_at) / Fold change /veh CD79A (11719716_a_at) / RFU HIST1H1D (11736915_at) / Fold change /veh HIST1H1D (11736915_at) / RFU CASKIN2 (11723855_a_at) / Fold change /veh CASKIN2 (11723855_a_at) / RFU LOC730098 (11760151_x_at) / Fold change /veh LOC730098 (11760151_x_at) / RFU OR4N2 (11742367_at) / Fold change /veh OR4N2 (11742367_at) / RFU PRRT2 (11749266_a_at) / Fold change /veh PRRT2 (11749266_a_at) / RFU SNX32 (11753110_a_at) / Fold change /veh SNX32 (11753110_a_at) / RFU CDHR5 (11726645_a_at) / Fold change /veh CDHR5 (11726645_a_at) / RFU RCAN1 (11760418_a_at) / Fold change /veh RCAN1 (11760418_a_at) / RFU FAM167A (11723789_a_at) / Fold change /veh FAM167A (11723789_a_at) / RFU FAM26E (11764081_at) / Fold change /veh FAM26E (11764081_at) / RFU ISYNA1 (11749810_s_at) / Fold change /veh ISYNA1 (11749810_s_at) / RFU ACY1 (11761880_at) / Fold change /veh ACY1 (11761880_at) / RFU 11764098_at / Fold change /veh 11764098_at / RFU SAMD14 (11745864_x_at) / Fold change /veh SAMD14 (11745864_x_at) / RFU NPB (11741838_a_at) / Fold change /veh NPB (11741838_a_at) / RFU TMPRSS6 (11731388_a_at) / Fold change /veh TMPRSS6 (11731388_a_at) / RFU KRTAP10-2 (11738614_at) / Fold change /veh KRTAP10-2 (11738614_at) / RFU ARHGAP8 /// PRR5-ARHGAP8 (11727945_x_at) / Fold change /veh ARHGAP8 /// PRR5-ARHGAP8 (11727945_x_at) / RFU KRTAP5-7 /// NADSYN1 (11734609_at) / Fold change /veh KRTAP5-7 /// NADSYN1 (11734609_at) / RFU RASL12 (11751679_a_at) / Fold change /veh RASL12 (11751679_a_at) / RFU CDKN2B (11736163_a_at) / Fold change /veh CDKN2B (11736163_a_at) / RFU PRF1 (11729649_at) / Fold change /veh PRF1 (11729649_at) / RFU, ZNF638 /// ZNF638-IT1 / Fold change vs veh, ZNF638 /// ZNF638-IT1 / RFU, PANK3 / Fold change vs veh, PANK3 / RFU, SH3YL1 / Fold change vs veh, SH3YL1 / RFU, ZEB2 / Fold change vs veh, ZEB2 / RFU, NRIP1 / Fold change vs veh, NRIP1 / RFU, PTTG1IP / Fold change vs veh, PTTG1IP / RFU, CAPN2 / Fold change vs veh, CAPN2 / RFU, MED14 / Fold change vs veh, MED14 / RFU, SNORA58 / Fold change vs veh, SNORA58 / RFU, C1orf63 / Fold change vs veh, C1orf63 / RFU, LRRFIP1 / Fold change vs veh, LRRFIP1 / RFU, NDUFAF7 / Fold change vs veh, NDUFAF7 / RFU, SLC12A2 / Fold change vs veh, SLC12A2 / RFU, IBTK / Fold change vs veh, IBTK / RFU, ESF1 / Fold change vs veh, ESF1 / Fold change vs veh, TMEM50B / RFU, TAOK1 / Fold change vs veh, TAOK1 / RFU, ACBD3 / Fold change vs veh, ACBD3 / RFU, TMA16 / Fold change vs veh, TMA16 / RFU, RWDD3 / Fold change vs veh, RWDD3 / RFU, BCAT1 / Fold change vs veh, BCAT1 / RFU, EDEM3 / Fold change vs veh, EDEM3 / RFU, TMEM33 / Fold change vs veh, TMEM33 / RFU, WDR75 / Fold change vs veh, WDR75 / RFU, AHCTF1 / Fold change vs veh, AHCTF1 / RFU, TFRC / Fold change vs veh, TFRC / RFU, ZDHHC17 / Fold change vs veh, ZDHHC17 / RFU, NOM1 / Fold change vs veh, NOM1 / RFU, ARL8B / Fold change vs veh, ARL8B / RFU, ZBTB11 / Fold change vs veh, ZBTB11 / RFU, TAMM41 / Fold change vs veh, TAMM41 / RFU, KIAA1704 /// LOC100996395 / Fold change vs veh, KIAA1704 /// LOC100996395 / RFU, ING1 / Fold change vs veh, ING1 / RFU, TRMT61B / Fold change vs veh, TRMT61B / RFU, FUBP3 / Fold change vs veh, FUBP3 / RFU, TP53 / Fold change vs veh, TP53 / RFU, TNKS2 / Fold change vs veh, TNKS2 / RFU, ZFP14 / Fold change vs veh, ZFP14 / RFU, ACTR2 / Fold change vs veh, ACTR2 / RFU, PPP3R1 / Fold change vs veh, PPP3R1 / RFU, PIK3R1 / Fold change vs veh, PIK3R1 / RFU, HNRNPA1 / Fold change vs veh, HNRNPA1 / RFU, RNF170 / Fold change vs veh, RNF170 / RFU, ZNF28 / Fold change vs veh, ZNF28 / RFU, RNGTT / Fold change vs veh, RNGTT / RFU, OGT / Fold change vs veh, OGT / RFU, BRD1 / Fold change vs veh, BRD1 / RFU, MARS / Fold change vs veh, MARS / RFU, ZNF655 / Fold change vs veh, ZNF655 / RFU, FAHD1 / Fold change vs veh, FAHD1 / RFU, BDP1 / Fold change vs veh, BDP1 / RFU, LRRCC1 / Fold change vs veh, LRRCC1 / RFU, ARID1A / Fold change vs veh, ARID1A / RFU, ZNF146 / Fold change vs veh, ZNF146 / RFU, ZNF330 / Fold change vs veh, ZNF330 / RFU, GPN3 / Fold change vs veh, GPN3 / RFU, C9orf123 / Fold change vs veh, C9orf123 / RFU, N4BP2L2 / Fold change vs veh, N4BP2L2 / RFU, ARFIP1 / Fold change vs veh, ARFIP1 / RFU, FAM179B / Fold change vs veh, FAM179B / RFU, BCL10 / Fold change vs veh, BCL10 / RFU, UHRF1BP1L / Fold change vs veh, UHRF1BP1L / RFU, BET1 / Fold change vs veh, BET1 / RFU, CNOT2 / Fold change vs veh, CNOT2 / RFU, ZNF268 / Fold change vs veh, ZNF268 / Fold change vs veh, ZNF507 / RFU, DGCR2 / Fold change vs veh, DGCR2 / RFU, WDSUB1 / Fold change vs veh, WDSUB1 / Fold change vs veh, HSP90B1 /// MIR3652 / RFU, ADSS / Fold change vs veh, ADSS / RFU, GK / Fold change vs veh, GK / RFU, ZNF148 / Fold change vs veh, ZNF148 / RFU, TAF9 / Fold change vs veh, TAF9 / RFU, SLC1A5 / Fold change vs veh, SLC1A5 / RFU, SLMO2 / Fold change vs veh, SLMO2 / RFU, ABCC4 / Fold change vs veh, ABCC4 / RFU, LOC101060439 /// RAP1B / Fold change vs veh, LOC101060439 /// RAP1B / RFU, RFX7 / Fold change vs veh, RFX7 / RFU, GTPBP10 / Fold change vs veh, GTPBP10 / RFU, CNEP1R1 / Fold change vs veh, CNEP1R1 / RFU, BIVM-ERCC5 /// ERCC5 / Fold change vs veh, BIVM-ERCC5 /// ERCC5 / RFU, ILF3 / Fold change vs veh, ILF3 / RFU 11762660_at / Fold change /veh 11762660_at / RFU VCAN (11757783_s_at) / Fold change /veh VCAN (11757783_s_at) / RFU DDX43 (11728927_at) / Fold change /veh DDX43 (11728927_at) / RFU KRT8 (11758188_x_at) / Fold change /veh KRT8 (11758188_x_at) / RFU NKD1 (11759106_at) / Fold change /veh NKD1 (11759106_at) / RFU SRD5A1 (11742802_a_at) / Fold change /veh SRD5A1 (11742802_a_at) / RFU TPSAB1 /// TPSB2 (11721975_s_at) / Fold change /veh TPSAB1 /// TPSB2 (11721975_s_at) / RFU GSTM3 (11746129_a_at) / Fold change /veh GSTM3 (11746129_a_at) / RFU IL23R (11737362_x_at) / Fold change /veh IL23R (11737362_x_at) / RFU TMEM51 (11727254_a_at) / Fold change /veh TMEM51 (11727254_a_at) / RFU PIWIL2 (11732686_x_at) / Fold change /veh PIWIL2 (11732686_x_at) / RFU ORM1 (11744905_x_at) / Fold change /veh ORM1 (11744905_x_at) / RFU CCDC152 (11743942_at) / Fold change /veh CCDC152 (11743942_at) / RFU ECM1 (11717891_a_at) / Fold change /veh ECM1 (11717891_a_at) / RFU IL23R (11748794_a_at) / Fold change /veh IL23R (11748794_a_at) / RFU TNFAIP8L3 (11732012_x_at) / Fold change /veh TNFAIP8L3 (11732012_x_at) / RFU MBOAT4 (11741988_at) / Fold change /veh MBOAT4 (11741988_at) / RFU 11764193_at / Fold change /veh 11764193_at / RFU TMEM53 (11763286_at) / Fold change /veh TMEM53 (11763286_at) / RFU MAGEB2 (11727129_at) / Fold change /veh MAGEB2 (11727129_at) / RFU TMEM200A (11744735_a_at) / Fold change /veh TMEM200A (11744735_a_at) / RFU CCDC152 (11751479_a_at) / Fold change /veh CCDC152 (11751479_a_at) / RFU FAM211A (11726209_a_at) / Fold change /veh FAM211A (11726209_a_at) / RFU RGS16 (11746705_a_at) / Fold change /veh RGS16 (11746705_a_at) / RFU VCAN (11755009_s_at) / Fold change /veh VCAN (11755009_s_at) / RFU RHOB (11743442_s_at) / Fold change /veh RHOB (11743442_s_at) / RFU RGS16 (11720943_a_at) / Fold change /veh RGS16 (11720943_a_at) / RFU RGS16 (11720944_at) / Fold change /veh RGS16 (11720944_at) / RFU, VPS4B / Fold change vs veh, VPS4B / RFU, CREB1 / Fold change vs veh, CREB1 / RFU, DNAJC13 / Fold change vs veh, DNAJC13 / RFU, GNAQ / Fold change vs veh, GNAQ / RFU, CDK5R1 / Fold change vs veh, CDK5R1 / RFU, ZRANB3 / Fold change vs veh, ZRANB3 / RFU, CUL4A / Fold change vs veh, CUL4A / RFU, CCNY / Fold change vs veh, CCNY / RFU, UFL1 / Fold change vs veh, UFL1 / RFU, COG3 / Fold change vs veh, COG3 / RFU, DIAPH2 / Fold change vs veh, DIAPH2 / RFU, SKA2 / Fold change vs veh, SKA2 / RFU, AFF3 / Fold change vs veh, AFF3 / RFU, LMF1 / Fold change vs veh, LMF1 / RFU, IPO11 / Fold change vs veh, IPO11 / RFU, DFFB / Fold change vs veh, DFFB / RFU, FOXP1 / Fold change vs veh, FOXP1 / RFU, CARD8 / Fold change vs veh, CARD8 / RFU, STRN3 / Fold change vs veh, STRN3 / RFU, ADK / Fold change vs veh, ADK / RFU, RASSF2 / Fold change vs veh, RASSF2 / RFU, WIPF1 / Fold change vs veh, WIPF1 / RFU, LARP1B / Fold change vs veh, LARP1B / RFU, RASA1 / Fold change vs veh, RASA1 / RFU, RB1 / Fold change vs veh, RB1 / RFU, PPFIA1 / Fold change vs veh, PPFIA1 / RFU, MAT2A / Fold change vs veh, MAT2A / RFU, CCT5 / Fold change vs veh, CCT5 / RFU, WDR92 / Fold change vs veh, WDR92 / RFU, CUX1 / Fold change vs veh, CUX1 / RFU, TTC7A / Fold change vs veh, TTC7A / RFU, TMEM135 / Fold change vs veh, TMEM135 / RFU, DEPTOR / Fold change vs veh, DEPTOR / RFU, CPM / Fold change vs veh, CPM / RFU, DNAJB6 / Fold change vs veh, DNAJB6 / RFU, CACNA2D3 / Fold change vs veh, CACNA2D3 / RFU, DTX4 / Fold change vs veh, DTX4 / RFU, TFCP2 / Fold change vs veh, TFCP2 / RFU, GMCL1 /// GMCL1P1 / Fold change vs veh, GMCL1 /// GMCL1P1 / RFU, AEBP2 / Fold change vs veh, AEBP2 / RFU, SNHG1 /// SNORD22 /// SNORD25 /// SNORD26 /// SNORD27 /// SNORD28 /// SNORD29 /// SNORD31 / Fold change vs veh, SNHG1 /// SNORD22 /// SNORD25 /// SNORD26 /// SNORD27 /// SNORD28 /// SNORD29 /// SNORD31 / Fold change (Aza/veh), C12orf56 (ProbeSet 11735607_a_at) / Fold change (ACY-1035/veh), C12orf56 (ProbeSet 11735607_a_at) / Fold change (Aza/veh), FGFR1OP (ProbeSet 11751329_s_at) / Fold change (ACY-1035/veh), FGFR1OP (ProbeSet 11751329_s_at) / Fold change (Aza/veh), VPS36 (ProbeSet 11739960_a_at) / Fold change (ACY-1035/veh), VPS36 (ProbeSet 11739960_a_at) / RFU SYPL1 (11715823_x_at) / Fold change /veh SYPL1 (11715823_x_at) / RFU IGFBP7 (11715501_s_at) / Fold change /veh IGFBP7 (11715501_s_at) / RFU REEP3 (11722064_at) / Fold change /veh REEP3 (11722064_at) / RFU IGLL1 (11728026_x_at) / Fold change /veh IGLL1 (11728026_x_at): dose or concentration left out as unconfirmed
Conditions: MV-4-11 cells, 48 hours

In the case of `Nc1ncn([C@@H]2O[C@H](CO)[C@@H](O)[C@H]2O)c(=O)n1` [azacitidine], the “Fold change /veh IL23R (11748794_a_at)” value is reported as 1.48.
